# Measurements from ChEMBL document CHEMBL1201862, “PubChem BioAssay data set” (2004).
#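 Cultured in 96-well plates, cells were exposed to test compound for 48 hours across five concentrations. GI50: concentration for 50% inhibition of growth.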 Activity calls are given as the source filed them. Rule as the data show it: active = GI50 up to about 1.1 µM and inactive = higher. Positions of bridges follow the written chain, without caps; N, C: chain ends. Non-standard residues stand in square brackets, D forms with d. Residues, ends and D or L forms follow the SMILES beside them. ξ: configuration not given here. *: point of attachment. X28 = O=C(/C=C/C=C/C=C/C=C/C=C/C(=O)*)NC1=C(O)CCC1=O; Pro(4R-Me) = C[C@H]1CN[C@H](C(=O)O)C1; NMeA = CN[C@@H](C)C(=O)O; ξF = NC(Cc1ccccc1)C(=O)O; ξA = CC(N)C(=O)O
# Assays:
# Assay in all cases: DTP human tumour cell line panel, 48 h
# [1] = test system: SK-MEL-2
# [2] = test system: SK-MEL-28
# [3] = test system: DU-145
# [4] = test system: NCI-H460
# [5] = test system: Malme-3M
# [6] = test system: SK-OV-3
# [7] = test system: BT-549
# [8] = test system: OVCAR-4
# [9] = test system: SN12C
# [10] = test system: NCI-H522
# [11] = test system: U-251
# [12] = test system: K562
# [13] = test system: COLO 205
# [14] = test system: RXF 393
# [15] = test system: HOP-62
# [16] = test system: SNB-75
# [17] = test system: SR
# [18] = test system: EKVX
# [19] = test system: ACHN
# [20] = test system: CAKI-1
SMILES,GI50 [1],GI50 [2],GI50 [3],GI50 [4],GI50 [5],GI50 [6],GI50 [7],GI50 [8],GI50 [9],GI50 [10],GI50 [11],GI50 [12],GI50 [13],GI50 [14],GI50 [15],GI50 [16],GI50 [17],GI50 [18],GI50 [19],GI50 [20]
COc1ccc(OC)c(-c2cc(C(=O)O)c3cc4ccccc4cc3n2)c1,> 100 µM (inactive),> 100 µM (inactive),> 100 µM (inactive),> 100 µM (inactive),> 100 µM (inactive),> 100 µM (inactive),> 100 µM (inactive),> 100 µM (inactive),> 100 µM (inactive),> 100 µM (inactive),> 100 µM (inactive),> 100 µM (inactive),> 100 µM (inactive),> 100 µM (inactive),> 100 µM (inactive),> 100 µM (inactive),> 100 µM (inactive),> 100 µM (inactive),> 100 µM (inactive),> 100 µM (inactive)
NC1CCC(c2cc3ccccc3s2)(N2CCCCC2)CC1 (stereo not given),1.55 µM (inactive),1.58 µM (inactive),4.67 µM (inactive),1.63 µM (inactive),2.23 µM (inactive),10.6 µM (inactive),1.21 µM (inactive),3.33 µM (inactive),1.67 µM (inactive),1.76 µM (inactive),1.53 µM (inactive),1.63 µM (inactive),1.58 µM (inactive),6.01 µM (inactive),1.35 µM (inactive),10.5 µM (inactive),1.54 µM (inactive),1.41 µM (inactive),3.41 µM (inactive),2.57 µM (inactive)
CCCNC(=O)Cn1c(-c2ccccc2)cc2ccccc21,69.8 µM (inactive),92.3 µM (inactive),> 100 µM (inactive),92.3 µM (inactive),92 µM (inactive),29.4 µM (inactive),> 100 µM (inactive),24.4 µM (inactive),> 100 µM (inactive),23.7 µM (inactive),> 100 µM (inactive),> 100 µM (inactive),> 100 µM (inactive),18.5 µM (inactive),67.3 µM (inactive),25.9 µM (inactive),> 100 µM (inactive),30.6 µM (inactive),71.8 µM (inactive),52 µM (inactive)
COc1cc2c(c(OC)c1OC)-c1ccc(OC)c(=O)cc1C(NC(=O)c1ccc(N=[N+]=[N-])cc1)CC2 (stereo not given),0.0327 µM (active),0.789 µM (active),0.0378 µM (active),0.031 µM (active),0.608 µM (active),0.0292 µM (active),0.0507 µM (active),1.24 µM (inactive),0.0514 µM (active),0.0175 µM (active),0.0307 µM (active),0.0246 µM (active),0.021 µM (active),0.0185 µM (active),0.0413 µM (active),0.766 µM (active),0.0435 µM (active),0.132 µM (active),0.0809 µM (active),0.032 µM (active)
N=C1C(=N)c2ccccc2-c2ccccc21,1.55 µM (inactive),1.35 µM (inactive),1.49 µM (inactive),1.38 µM (inactive),1.19 µM (inactive),1.7 µM (inactive),0.914 µM (active),1.45 µM (inactive),1.19 µM (inactive),1.21 µM (inactive),1.07 µM (active),0.513 µM (active),1.73 µM (inactive),1.82 µM (inactive),1.67 µM (inactive),1.82 µM (inactive),0.695 µM (active),1.9 µM (inactive),1.41 µM (inactive),1.71 µM (inactive)
O=CC12C3CCC1C2C(=O)C3 (stereo not given),> 100 µM (inactive),> 100 µM (inactive),> 100 µM (inactive),> 100 µM (inactive),> 100 µM (inactive),> 100 µM (inactive),> 100 µM (inactive),> 100 µM (inactive),> 100 µM (inactive),> 100 µM (inactive),> 100 µM (inactive),> 100 µM (inactive),> 100 µM (inactive),> 100 µM (inactive),> 100 µM (inactive),> 100 µM (inactive),> 100 µM (inactive),> 100 µM (inactive),> 100 µM (inactive),> 100 µM (inactive)
CC1NC(=O)[C@H](C)N(C)C(=O)[C@@H]2CCCN2C(=O)[C@@H](NC(=O)C(Cc2ccccc2)NC(=O)/C=C/C=C/C=C/C=C/C=C/C(=O)NC2=C(O)CCC2=O)COC(=O)[C@@H]2C[C@@H](C)CN2C1=O (stereo partly drawn) (X28-[ξF]SP[NMeA][ξA][Pro(4R-Me)]; ester 2-C),> 100 µM (inactive),> 100 µM (inactive),> 100 µM (inactive),> 100 µM (inactive),> 100 µM (inactive),> 100 µM (inactive),> 100 µM (inactive),> 100 µM (inactive),> 100 µM (inactive),> 100 µM (inactive),> 100 µM (inactive),> 100 µM (inactive),> 100 µM (inactive),> 100 µM (inactive),> 100 µM (inactive),> 100 µM (inactive),> 100 µM (inactive),> 100 µM (inactive),> 100 µM (inactive),> 100 µM (inactive)
